From ChEMBL document CHEMBL4422611, “A review on diverse heterocyclic compounds as the privileged scaffolds in antimalarial drug discovery” (Eur J Med Chem, 2018)
≈ marks a conversion by molar mass, not a printed value.

Experiments:
[1] = system: Plasmodium falciparum; test: Antimalarial activity against Plasmodium falciparum infected in human RBC after 72 hrs by Giemsa staining based assay; assay type: functional, organism-based
[2] = system: Plasmodium falciparum; test: Antimalarial activity against synchronized ring stage of Plasmodium falciparum infected in human RBC measured after 48 hrs; assay type: functional, organism-based
[3] = system: Plasmodium falciparum; test: Antimalarial activity against Plasmodium falciparum; assay type: functional, organism-based
[4] = system: Plasmodium falciparum; test: Antimalarial activity against synchronized ring stage of chloroquine-sensitive Plasmodium falciparum 3D7 infected in human RBC assessed as parasite death at 5 ug/ml after 40 hrs by Giemsa staining based microscopic analysis relative to control; assay type: functional
[5] = system: Plasmodium falciparum; test: Antimalarial activity against synchronized ring stage of chloroquine-resistant Plasmodium falciparum RKL2 infected in human RBC assessed as parasite death at 5 ug/ml after 40 hrs by Giemsa staining based microscopic analysis relative to control; assay type: functional

| SMILES | IC50 [2] | also measured |
| --- | --- | --- |
| COc1ccc2nc(Cl)c(/C=C3\C=C(c4ccc(C)cc4C)OC3=O)cc2c1 | – | IC50 [1]: 0.5 µg/mL (≈ 1.28 µM) |
| Cc1nn(-c2ccccc2)c(-n2ccnc2)c1C1CC(c2ccc(Br)cc2)=NO1 (stereo not drawn) | 0.036 µg/mL | – |
| CCOC(=O)C1=C(N)Oc2c(c(=O)n(C)c(=O)n2C)C1c1c(C)nn(-c2ccccc2)c1-n1ccnc1 (stereo not drawn) | 0.049 µg/mL | – |
| COc1ccc(NN2C(N)=C(C#N)C(c3c(C)nn(-c4ccccc4)c3Oc3cccc(C(F)(F)F)c3)C3=C2CC(C)(C)CC3=O)cc1 (stereo not drawn) | – | IC50 [3]: 0.042 µg/mL (≈ 0.0642 µM) |
| Cc1nn(-c2ccccc2)c(-n2ccnc2)c1C1C(C#N)=C(N)Oc2c1ccc1ccccc21 (stereo not drawn) | 0.54 µg/mL | – |
| Cc1n[nH]c2c1C(C1CCCCC1)c1c(n(C)c(=O)n(C)c1=O)N2 (stereo not drawn) | 0.033 µg/mL | – |
| Cc1nn(-c2ccccc2)c(Oc2ccccc2F)c1-c1nnc(-c2ccc(Br)cc2)o1 | 506 nM | – |
| Cc1nn(-c2ccccc2)c(-n2ccnc2)c1C1CC(c2ccc(Br)cc2)=NN1 (stereo not drawn) | 0.012 µg/mL | – |
| Clc1ccc2c(NCCN3CCN(c4nc(N5CCOCC5)nc(N5CCOCC5)n4)CC3)ccnc2c1 | – | Activity [4]: 6%; Activity [5]: 8% |
| Cc1nn(-c2ccccc2)c(-n2ccnc2)c1C1CC(c2ccc(O)cc2)=NN1 (stereo not drawn) | 0.036 µg/mL | – |
| Cc1nn(-c2ccccc2)c2c1C(c1cccs1)c1c(n(C)c(=O)n(C)c1=O)N2 (stereo not drawn) | 0.033 µg/mL | – |
| Cc1nn(-c2ccccc2)c(-n2ccnc2)c1C1C(C#N)=C(N)Oc2c1c(=O)oc1ccccc21 (stereo not drawn) | 0.42 µg/mL | – |
| CCOC(=O)C1=C(N)OC2=C(C(=O)CC(C)(C)C2)C1c1c(C)nn(-c2ccccc2)c1-n1ccnc1 (stereo not drawn) | 0.067 µg/mL | – |
| Cc1n[nH]c2c1C(c1c(C)nn(-c3ccccc3)c1-n1ccnc1)C(C#N)=C(N)O2 (stereo not drawn) | 0.57 µg/mL | – |
| Cc1nn(-c2ccccc2)c2c1C(c1c(C)nn(-c3ccccc3)c1-n1ccnc1)C(C#N)=C(N)O2 (stereo not drawn) | 0.034 µg/mL | – |
| CCOC(=O)C1=C(N)Oc2c(ccc(O)c2C)C1c1c(C)nn(-c2ccccc2)c1-n1ccnc1 (stereo not drawn) | 0.061 µg/mL | – |
| Cc1nn(-c2ccccc2)c(-n2ccnc2)c1C1C(C#N)=C(N)Oc2ccc3ccccc3c21 (stereo not drawn) | 0.32 µg/mL | – |
